# Read-outs that look alike come from different tables or passages of the source.
# B1: PRO 140: humanized IgG4,κ anti-CCR5 monoclonal antibody, humanized version of murine mAb PA14 (antibody, chains of the INN, looked up, V domains shown)
# VH: EVQLVESGGGLVKPGGSLRLSCAASGYTFSNYWIGWVRQAPGKGLEWIGDIYPGGNYIRNNEKFKDKTTLSADTSKNTAYLQMNSLKTEDTAVYYCGSSFGSNYVFAWFTYWGQGTLVTVSS
# VL: DIVMTQSPLSLPVTPGEPASISCRSSQRLLSSYGHTYLHWYLQKPGQSPQLLIYEVSNRFSGVPDRFSGSGSGTDFTLKISRVEAEDVGVYYCSQSTHVPLTFGQGTKVEIK
# Experiments:
# [1] = tested on: AD101- and SCH-D-resistant HIV-1 variants; conditions: primary CD4+ T-cells; cited from earlier work
# [2] = tested on: reporter virus pseudotyped with HIV-1JR-FL envelope; assay type: cell-based
# Method: (§1) Cultures were incubated for 72 h at 37° C. in DMEM containing 10% fetal bovine serum, 1 mg/mL puromycin, 0.3 mg/mL geneticin, antibiotics, and 0.5% DMSO. Luciferase activity (relative light units or RLU) was measured using BrightGlo reagent (Promega, Madison, Wis.) according to the manufacturer's instructions. Percent inhibition was calculated as: (1−RLU in the presence of inhibitor/RLU in the absence of inhibitor)×100.
# (§2) Experimental design and data analysis were based on the combination index (CI) method (Chou et al. 1991; Chou et al. 1984). Compounds were tested individually and in combination at a fixed molar ratio over a range of serial dilutions. […] The mutually exclusive CI formula was used for combinations of CCR5 inhibitors, while the mutually non-exclusive formula was utilized for combinations of inhibitors to distinct targets (Chou et al. 1991). Each test was conducted 4-12 times. Synergy, additivity and antagonism are indicated by CI<1, CI=1 and CI>1, respectively.
# CCR5 [3] = target: T1, CCR5 (Homo sapiens, UniProt P51681); assay: Competition binding: inhibition of PRO 140-PE binding to CEM.NKR-CCR5 cells (flow cytometry); conditions: for Inhibition of PRO 140-PE binding: unlabeled inhibitor pre-incubated 30 min, 5 nM PRO 140-PE
# T1 construct: host or cells: CEM.NKR (human T cell leukemia line), transduced with CCR5
# Method: Inhibition was assessed on the basis of both MFI (A) and percent cells gated (B).
# Azide was added to block CCR5 internalization during the assay.
# CCR5 [4] = target: T1, CCR5; assay: Competition binding: inhibition of 3H-UK-427,857 binding to CEM.NKR-CCR5 cells
# Text: Cells were washed and then analyzed for radioactivity by scintillation counting.
# The cells were washed in PBSA and lysed with 0.5N HCl prior to scintillation counting using a Wallac 1410 instrument.
# [5] = tested on: HIV-1 Env-mediated fusion (HeLa-EnvJRFL with CEM NKR-CCR5 cells); assay: HIV-1 RET cell-cell fusion assay (Part II, combination testing); assay type: cell-based; conditions: Drug 1 SCH-D with Drug 2 TAK-779, molar ratio 1:1
# Method: Briefly, fluorescein octadecyl ester (F18; Molecular Probes, Eugene, Oreg.; 5 mg/ml in ethanol), was diluted 1:800 in DMEM labeling medium (DMEM; Invitrogen, Carlsbad, Calif.) with 10% fetal bovine serum (FBS; HyClone, Logan, Utah) and adjusted to an A506 of 0.34±10%. Octadecyl rhodamine B chloride (R18; Molecular Probes; 10 mg/ml in ethanol) was diluted 1:2050 in labeling medium and adjusted to an A565 of 0.52±10%. Both dyes were further diluted 2-fold by addition to cells in T75-cm^2 flasks. HeLa-EnvJRFL and CEM NKR-CCR5 cells were incubated overnight in F18- and R18-containing culture medium, respectively. […] The centrifugation/wash step was repeated twice, after which the cells were counted and concentrations adjusted to 1.5×10^6 cells/ml. […] The plates were then read on a fluorescence plate reader (Victor^2, Perkin Elmer, Boston, Mass.) using the excitation/emission filter combinations shown in Table 6.
# The “% RET” was calculated according to the following formula after subtraction of background (blank) readings: […]
# The “% Inhibition” was calculated according to the following formula: […]
# Fifty percent inhibition (IC50) values were determined by fitting the inhibition data with a non-linear, four-parameter, variable slope equation (GraphPad Prism, 4.02; GraphPad Software, San Diego, Calif.). […]
# [6] = tested on: reporter virus pseudotyped with HIV-1SF162 envelope; assay type: cell-based; conditions: 2nd inhibitor PRO 140, equimolar, 1:10 PRO 140 to zidovudine or nevirapine
# Method: as §1, §2
# [7] = in vivo; cited from earlier work
# HIV-1 = conditions: cited from earlier work
# [8] = single administration of solution; cited from earlier work
# [9] = tested on: HIV-1JR-FL envelope-mediated membrane fusion; assay type: cell-based
# Text: HIV-1 envelope-mediated membrane fusion was examined using a fluorescence resonance energy transfer (RET) assay (Litwin et al. 1996) with modifications. Briefly, HeLa cells that stably express HIV-1JR-FL gp120/gp41 (Litwin et al. 1996) and CEM.NKR-CCR5 cells (NIH AIDS Research and Reference Reagent Program, (Spenlehauer et al. 2001; Trkola et al. 1999)) were labeled separately overnight with fluorescein octadecyl ester (F18; Molecular Probes, Eugene, Oreg.) and rhodamine octadecyl ester (R18; Molecular Probes), respectively. […] The CD4 mAb Leu3a was used as a control inhibitor, and percent inhibition was calculated as: (RET in the absence of inhibitor−RET in the presence of inhibitor)/(RET in the absence of inhibitor−RET in the presence of Leu3a)×100.
# as §2
# Twenty-two synergy comparisons (11 compounds×2 CI values) were made based on data generated in the membrane fusion assay, resulting in a corrected P value of 0.0023.
# [10] = design: species or system human; conditions: in vivo
# Method: At the indicated times post-treatment, serum was collected, cryopreserved, and analyzed for PRO 140 levels. Data for individual patients are indicated.
# Sera were diluted as appropriate and combined with L1.2-CCR5 cells, which are mouse pre-B lymphoma cells engineered to stably express human CCR5. […] Following incubation with test samples, cells were washed and combined with a FITC-labeled sheep antibody against human IgG4 (The Binding Site Limited, Cat. #AF009). Cells were washed again and analyzed by flow cytometry.
# Serum was collected post-treatment, cryopreserved, and analyzed for PRO 140 levels. Peak serum concentrations ranged to […] at 0.1 mg/kg and […] at 0.5 mg/kg.
# CCR5 lymphocytes = assay type: in vivo, human
# Method: At the indicated times post-treatment, blood was collected and analyzed for CCR5 lymphocyte levels. The group mean values and standard deviations are indicated.
# Whole blood specimens were combined separately with the indicated phycoerythrin-labeled anti-CCR5 antibodies or with appropriate isotype-control antibodies. Erythocytes were lysed and leukocytes were stabilized using the ImmunoPrep Reagent System (Beckman Coulter), and the cells were analyzed on a TQ Prep™ flow cytometry workstation (Beckman Coulter). Data were expressed as the percent of CCR5 cells relative to all cells gated in the analysis.
# For up to 60 days post-treatment, at the times indicated in FIG. 6, blood was collected and analyzed for CCR5 lymphocyte levels.
# CCR5 [11] = target: T1, CCR5; assay: RANTES-induced calcium mobilization in L1.2-CCR5 cells; assay type: cell-based; conditions: FIG. 4
# Text: Similar results were obtained for […] and MIP-1β.
# HIV-1JR-CSF = assay: hu-PBL-SCID mouse model of HIV-1 infection; assay type: in vivo, SCID mice; conditions: multiple doses after steady state viral levels
# Method: SCID mice were reconstituted with normal human peripheral blood mononuclear cells and infected 2 weeks later with HIV-1JR-CSF. Multiple doses of PRO 140 were administered following attainment of steady state viral levels. Plasma viral loads pre- and post-injection are indicated.
# [12] = envelope JRFL, 2nd inhibitor PRO 140, equimolar, 1:10 PRO 140 to zidovudine or nevirapine
# [13] = labelled 1st inhibitor with 2nd inhibitor PRO 140, equimolar
# [14] = labelled 1st inhibitor with 2nd inhibitor UK-427,857, equimolar
# T1 sequence (P51681 whole entry): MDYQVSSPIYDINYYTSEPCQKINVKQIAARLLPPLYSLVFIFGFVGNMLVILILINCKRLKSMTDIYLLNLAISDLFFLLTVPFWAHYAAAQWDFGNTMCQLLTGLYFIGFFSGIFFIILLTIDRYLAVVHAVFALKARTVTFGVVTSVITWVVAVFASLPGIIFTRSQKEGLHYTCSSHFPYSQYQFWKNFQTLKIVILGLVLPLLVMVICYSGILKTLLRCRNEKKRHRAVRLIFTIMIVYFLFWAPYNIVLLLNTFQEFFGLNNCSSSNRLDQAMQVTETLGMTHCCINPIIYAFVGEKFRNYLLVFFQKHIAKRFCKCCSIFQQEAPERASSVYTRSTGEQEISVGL
molecule,measurement,setting,value
CCO/N=C(\c1ccc(Br)cc1)C1CCN(C2(C)CCN(C(=O)c3c(C)cc[n+]([O-])c3C)CC2)CC1 [SCH-C],Sensitivity of AD101-resistant HIV-1 variant,[1],resistant
"COC[C@@H](c1ccc(C(F)(F)F)cc1)N1CCN(C2(C)CCN(C(=O)c3c(C)ncnc3C)CC2)C[C@@H]1C [SCH-D, 1-[(4,6-dimethyl-5pyrimidinyl)carbonyl]-4 [4-[2-methoxy-1(R)-4-(trifluoromethyl)phenyl]ethyl-3 (S)-methyl-1-piperazinyl]-4-methylpiperidine]",CI50,[2]; [12],0.47 ± 0.15
same,CI90,[2]; [12],0.18 ± 0.04
same,Effect on percent of cells gated for positive binding of PRO 140-PE,CCR5 [3]; FIG. 16B,little impact
same,Inhibition of PRO 140-PE binding,CCR5 [3],modest levels of inhibition
same,Sensitivity of SCH-D-resistant HIV-1 variant,[1],resistant
same,"Displacement of pre-bound 3H-UK-427,857 by unlabeled compound",CCR5 [4],wasn't displaced
same,Mean DR (Drug 2),[5],4.31 ± 1.82
same,CI50,[6],0.60 ± 0.17
same,CI90,[6],0.28 ± 0.11
CCCCOCCOc1ccc(-c2ccc3c(c2)/C=C(/C(=O)Nc2ccc(OCc4cncn4CCC)cc2)CCCN3CC(C)C)cc1 [TAK-652],Oral bioavailability,[7],orally bioavailable
same,Anti-HIV-1 activity in vitro,HIV-1,nanomolar range
same,Safety and tolerability,[8],safe and well tolerated
Cc1ccc(-c2ccc3c(c2)C=C(C(=O)Nc2ccc(C[N+](C)(C)C4CCOCC4)cc2)CCC3)cc1.[Cl-] [TAK-779],Inhibition of HIV-1 pseudovirus entry,"[2]; compound alone, data not shown","Neither TAK-779 nor RANTES mediated consistent, high-level inhibition"
same,Oral bioavailability,[7],poor oral bioavailability
RANTES: CC-chemokine that serves as a natural ligand for CCR5,CI50,[9]; [13],0.59 ± 0.08
same,CI90,[9]; [13],0.43 ± 0.05
same,CI50,[9]; [14],0.48 ± 0.03
same,CI90,[9]; [14],0.18 ± 0.01
B1,Inhibition of PRO 140-PE binding,CCR5 [3],Complete inhibition
same,Dose dependence of serum concentrations,[10],increased proportionally with dose level
same,Overall number of CCR5 lymphocytes (CTC5 binding),"CCR5 lymphocytes; in vivo, iv, 2 mg/kg",no decrease
same,Binding of antibody 2D7 (CCR5 lymphocytes not coated with PRO 140),CCR5 lymphocytes; single 2 mg/kg intravenous infusion,significantly decreased
same,"Displacement of pre-bound 3H-UK-427,857 by unlabeled compound","CCR5 [4]; cells pre-incubated with 2 nM 3H-UK-427,857, unlabeled compound 30 min",wasn't displaced
same,Effect on RANTES-induced calcium mobilization versus HIV-1JR-FL replication in PBMC,CCR5 [11],blocks HIV-1 but not chemokine signaling
same,Control of viral replication (plasma viral load),HIV-1JR-CSF,prolonged control of viral replication
